Holding throughout (assay type): cell-based
One assay deals with T1, human α1A adrenoceptor (Homo sapiens, UniProt P25100).
T1 sequence (P25100 1-572): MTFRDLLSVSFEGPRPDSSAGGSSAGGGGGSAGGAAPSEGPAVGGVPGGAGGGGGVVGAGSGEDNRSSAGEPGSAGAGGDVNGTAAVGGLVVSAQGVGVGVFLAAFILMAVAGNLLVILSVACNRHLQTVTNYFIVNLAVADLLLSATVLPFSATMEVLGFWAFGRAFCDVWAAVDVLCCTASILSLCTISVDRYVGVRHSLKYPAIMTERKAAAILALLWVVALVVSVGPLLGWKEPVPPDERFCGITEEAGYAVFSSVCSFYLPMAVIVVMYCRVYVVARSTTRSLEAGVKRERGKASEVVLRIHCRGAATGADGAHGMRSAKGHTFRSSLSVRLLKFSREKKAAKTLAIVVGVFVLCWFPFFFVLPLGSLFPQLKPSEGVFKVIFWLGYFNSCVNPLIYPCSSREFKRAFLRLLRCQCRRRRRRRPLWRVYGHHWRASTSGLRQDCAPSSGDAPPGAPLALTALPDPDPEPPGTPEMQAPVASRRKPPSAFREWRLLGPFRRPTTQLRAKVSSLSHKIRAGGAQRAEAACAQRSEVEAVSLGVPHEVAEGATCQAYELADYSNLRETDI
As to the kind of experiment: cell-based. Particulars: for Emax: read-out: intrinsic activity (i.a.) α1A; for stimulation of inositol phosphate production, α1A: result in words. How it is done:
(§1) α1 -Adrenoceptor-Mediated Phosphoinositide Accumulation in Cultured Cell Lines
(§2) The agonist activity of test compounds was assayed by measuring their ability to generate phosphoinositide production in cells stably transfected with each of the three cloned human α1 -adrenoceptor subtypes. Cells were plated in 96-well plates and grown to confluence. The day before the assay the growth medium was changed to 100 μl of medium containing 1% serum and 0.5 μCi [^3 H] myo-inositol, and the plates were incubated overnight in a CO2 incubator (5% CO2 at 37° C.). Immediately before the assay, the medium was removed and replaced by 200 μl of PBS containing 10 mM LiCl, and the cells were equilibrated with the new medium for 20 min. During this interval cells were also equilibrated with the antagonist, added as 10 μl aliquot of a 20-fold concentrated solution in PBS.
(§3) The [^3 H] inositol-phosphate (IP) accumulation was started by adding 10 μl of a solution containing the agonist. To the first well 10 μl were added to measure basal accumulation, and 11 different concentrations of agonist were assayed in the following 11 wells of each plate row. All assays were performed in duplicate by repeating the same additions in two consecutive plate rows. The plates were incubated in a CO2 incubator for 1 hr. The reaction was terminated by adding 15 μl of 50% (v/v) trichloroacetic acid (TCA), followed by a 40 min incubation at 4° C.
(§4) After neutralizing TCA with 40 μl of 1 M Tris, the content of the wells was transferred to a Multiscreen HV filter plate (Millipore) containing Dowex AG1-X8 (200-400 mesh, formate form). The filter plates were prepared adding 200 μl of Dowex AG1-X8 suspension (50% v/v, water:resin) to each well. The filter plates were placed on a vacuum manifold to wash or eluted the resin bed. Each well was washed 2 times with 200 μl of water, followed by 2×200 μ of 5 mM sodium tetraborate/60 mM ammonium formate. The [3H] IPs were eluted into empty 96-well plates with 200 μl of 1.2 M ammonium formate/0.1 formic acid. The content of the wells was added to 3 mls of scintillation cocktail, and the radioactivity was determined by liquid scintillation counting.

In another assay the target is T2, human α1C adrenoceptor (Homo sapiens, UniProt P35348).
T2 sequence (P35348 1-466): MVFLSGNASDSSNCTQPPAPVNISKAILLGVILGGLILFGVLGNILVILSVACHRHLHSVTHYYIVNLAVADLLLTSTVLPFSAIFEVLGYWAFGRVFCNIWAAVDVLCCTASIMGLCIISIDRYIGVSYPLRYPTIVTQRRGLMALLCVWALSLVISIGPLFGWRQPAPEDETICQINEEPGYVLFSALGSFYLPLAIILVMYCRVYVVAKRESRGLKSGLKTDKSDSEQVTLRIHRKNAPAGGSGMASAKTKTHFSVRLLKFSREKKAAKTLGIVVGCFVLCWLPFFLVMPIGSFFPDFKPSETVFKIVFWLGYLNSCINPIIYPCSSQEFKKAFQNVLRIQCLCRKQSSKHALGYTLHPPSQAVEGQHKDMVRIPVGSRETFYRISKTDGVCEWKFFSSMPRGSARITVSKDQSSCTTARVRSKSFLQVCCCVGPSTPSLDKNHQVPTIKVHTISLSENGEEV
As to the kind of experiment: cell-based. Particulars: for Emax: read-out: intrinsic activity (i.a.) α1C. The method, then: as §1, §2, §3, §4

In the next assay the target is T3, human α2C adrenoceptor (Homo sapiens, UniProt P18825).
T3 construct: expressed in transfected cells; host or cells: LM(tk-)
T3 sequence (P18825 1-462): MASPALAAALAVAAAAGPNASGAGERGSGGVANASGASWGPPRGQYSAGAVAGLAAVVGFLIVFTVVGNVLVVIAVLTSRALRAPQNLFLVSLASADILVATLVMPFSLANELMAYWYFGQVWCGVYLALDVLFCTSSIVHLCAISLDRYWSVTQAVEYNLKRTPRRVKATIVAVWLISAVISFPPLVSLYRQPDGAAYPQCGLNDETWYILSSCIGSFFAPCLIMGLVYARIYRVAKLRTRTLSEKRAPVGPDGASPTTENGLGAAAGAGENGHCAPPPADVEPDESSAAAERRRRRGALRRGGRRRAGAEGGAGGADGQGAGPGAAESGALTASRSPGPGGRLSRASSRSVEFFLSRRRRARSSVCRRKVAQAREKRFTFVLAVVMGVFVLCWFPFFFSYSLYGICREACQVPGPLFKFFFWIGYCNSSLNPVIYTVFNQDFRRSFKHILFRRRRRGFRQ
As to the kind of experiment: Inhibition of forskolin stimulated adenylyl cyclase, α2C. The following applies: for Emax: read-out: intrinsic activity (i.a.) α2C. How it is done: α2 -Adrenoceptor-Mediated Inhibition of Forskolin Stimulated Adenylyl Cyclase
The agonist activity of test compounds was assayed by measuring their ability to inhibit adenylyl cyclase in cells stably transfected with each of the three cloned human α2 -adrenoceptors. LM(tk-) cells expressing the α2A - or the α2C -, as well as Y1 cells expressing the α2B -adrenoceptor were used. […] The formation of cyclic AMP was measured in cultures incubated with DMEM containing 1 mM theophylline. Twelve concentrations of the test compounds (from 10 pM to 100 μM) were added to the incubation medium and incubated at 37° C. for 20 min. Following this incubation step, 10 μM forskolin was added to stimulate the formation of cyclic AMP, and the cultures were incubated for another 10 min. The reaction was stopped by replacing the incubation medium with 100 mM HCl . The intracellular levels of cyclic AMP were measured by radioimmunoassay. The data from concentration-response curves was fitted to a four-parameter logistic equation, by non-linear regression analysis, to determine the pEC50 and intrinsic activity.

[1] abbreviates: agonist, phosphoinositide accumulation, read-out: pEC50 α1A (converted).
[2] abbreviates: relative to reference full agonist (e.g., norepinephrine = unity).
Setting [3] is: agonist, inhibition of forskolin stimulated adenylyl cyclase, read-out: pEC50 α2C (converted).
Where [4] appears, read: agonist, phosphoinositide accumulation, read-out: pEC50 α1C (converted).

Structures are written as SMILES. Where two headings read alike, the source gives them in different places.

Take `CS(=O)(=O)Nc1c(O)ccc2c1CCCC2C1=NCCN1` (racemic) [Compound A-61603, (±)-N-[5-(4,5-Dihydro-1H-imidazol-2-yl)-2-hydroxy-5,6,7,8-tetra-hydronaphthalen-1-yl]methanesulfonamide]: the figures for the EC50 on human α1A adrenoceptor (setting [1]) and on human α2C adrenoceptor (setting [3]) were 25.1 µM and 0.02 µM, respectively. Also, the Emax at human α1A adrenoceptor (setting [2]) is 10%; on human α1C adrenoceptor (setting [2]), 120%; on human α2C adrenoceptor (setting [2]), 90%. Also, the “stimulation of inositol phosphate production, α1A” value on human α1A adrenoceptor is “virtually inactive”. Moreover, on human α1C adrenoceptor (result in words), the “stimulation of inositol phosphate production, α1C” value was “fully stimulate”.

With `COc1ccc(OC)c(C(O)CN)c1` (racemic) [ST-1059, (±)-2-Amino-1-(2, 5 dimethoxyphenyl) ethanol], the EC50 is 1.58 µM at human α1A adrenoceptor, 2 µM at human α1C adrenoceptor and 0.501 µM on human α2C adrenoceptor. Moreover, the values for the Emax at human α1A adrenoceptor, on human α1C adrenoceptor (setting [2]) and on human α2C adrenoceptor were 10%, 90% and 50%, respectively.

Regarding `COc1ccc(SC)c2c1C[C@@H]1[C@@H](C2)OCCN1C` (relative stereo) [SDZ NVI-085, (±)-trans-4-Methyl-6-methoxy-9-thiomethoxy-3,4,4a, 5,10,10a-hexahydro-2H-naphtho[2,3-b][1,4]oxazine], the figures for the EC50 at human α1A adrenoceptor (setting [1]), at human α1C adrenoceptor (setting [4]) and at human α2C adrenoceptor (setting [3]) were greater than 100 µM, 0.398 µM and greater than 100 µM, respectively. For the same molecule, the Emax on human α1A adrenoceptor was determined as 0%; at human α1C adrenoceptor (setting [2]) it was 110%; at human α2C adrenoceptor, 0%.

Regarding `CN[C@@H](C)[C@H](O)c1ccccc1` [(-)-ephedrine], the EC50 is 100 µM at human α1A adrenoceptor, 100 µM on human α1C adrenoceptor (setting [4]) and 10 µM on human α2C adrenoceptor. Further, the Emax was 10% on human α1A adrenoceptor, 10% on human α1C adrenoceptor (setting [2]) and 0% on human α2C adrenoceptor.

Take `C[C@H](N)[C@H](O)c1ccccc1` [(-)-norephedrine]: the results for the EC50 on human α1A adrenoceptor, on human α1C adrenoceptor (setting [4]) and at human α2C adrenoceptor were 15.8 µM, 50.1 µM and 0.126 µM, respectively. Also, the values for the Emax at human α1A adrenoceptor, on human α1C adrenoceptor (setting [2]) and at human α2C adrenoceptor were 30%, 40% and 60%, respectively.

Regarding `CNC[C@H](O)c1cccc(O)c1` [(-)-phenylephrine], the results for the Emax on human α1A adrenoceptor (setting [2]) and on human α1C adrenoceptor (setting [2]) were 70% and 90%, respectively. For the same molecule, the “intrinsic activity (i.a.) α2C” value at human α2C adrenoceptor (setting [2]) was determined as 0.9.

`CNCCc1ccc(O)c(NS(C)(=O)=O)c1` [SK&F 102652]: at human α1A adrenoceptor, the Emax was 10% and the “stimulation of inositol phosphate production, α1A” value is “virtually inactive”. Besides, at human α1C adrenoceptor, the “stimulation of inositol phosphate production, α1C” value is “fully stimulate” and the Emax turned out to be 110%. For the same molecule, at human α2C adrenoceptor, the Emax worked out at 80%.

(Values after patent US5610174A, “Use of α1A -selective adrenoceptor agonists for the treatment of urinary incontinence” (priority 1995, dated 1997).)
